Patent US12522618B2, “Copper complexes for treatment of neurodegenerative disorders” (ALS Therapy Development Institute, priority 2020, dated 2026)

Tests used:
SOD1^G93A mice [1] = experiment: Disease onset (neuroscore NS2) and survival (NS4) in SOD1^G93A mice; format: in vivo, mouse; conditions: for Effect on disease onset / Effect on survival: male SOD1^G93A mice, 10 mg/kg or 30 mg/kg daily oral gavage, vs vehicle
Description: The SOD1^G93A transgenic mouse model of ALS has been the most widely used animal model since the 1990s. The mouse was genetically engineered to overexpress a mutant form of the human Cu/Zn superoxide dismutase 1 (SOD1) gene harboring an ALS-associated glycine to alanine mutation at amino acid position 93 (G93A). These mice replicate many of the features of ALS, such as motor neuron loss, muscle wasting, progressive paralysis and decreased survival. Additionally, the SOD1^G93A mouse model has shown to be ideal for drug screening because of early onset of the disease and moderate progression.
The mice were treated with vehicle, 10 mg/kg or 30 mg/kg CuATSM or one of the derivatives: Compound 25 (2% DMSO, 10% KolliphorHS15), Compound 9 (0.5% methylcellulose), Compound 24 (0.5% methylcellulose, 0.4% TWEEN-80), and Compound 37 (0.5% methylcellulose, 0.4% TWEEN-80). Measurements were taken to assess compound muscle action potential (CMAP), neuroscore, and disease onset and survival.
Neuroscore is a neurological scoring system based on visual observations of the hindlimb designed to assess the neuromuscular function of SOD1^G93A mice. The hindlimb is observed due to this being the earliest reported neurological sign of disease in SOD1^G93A mice. This method provides an unbiased assessment of onset of paresis (slight or partial paralysis) and the progression and severity of the paralysis. This method has also proven to be sensitive enough to identify drug-induced changes in disease progression. Neuroscore is assigned on a 0-4 scale corresponding to the following observations: NS0=the hindlimbs present with a normal splay; NS1=hindlimbs present with an abnormal splay; NS2=the hindlimbs show signs of paresis or are partially paralyzed; NS3=rigid paralysis in the hindlimbs; NS4=the mouse is unable to right itself up. These measurements were used in the current study to assess disease onset.
The onset of disease in the SOD1^G93A mice typically happens around age day 90-100, with mice eventually succumbing to the disease around age day 120-130. For comparison, a wild-type mouse of the same background may live up to 2 years. The onset of the disease in the current study was defined as the time to observe a neuroscore of NS2 in the mouse, while a neuroscore of a NS4 was considered to be the humane end-point. Reported p-values to illustrate statistical significant represent a log-rank test.

SOD1^G93A mice [2] = experiment: Compound muscle action potential (CMAP) in SOD1^G93A mice; format: in vivo, mouse
[3] = test system: transgenic mouse models of ALS; conditions: transgenic mice expressing human SOD1 with familial ALS mutations; cited from earlier work
[4] = male SOD1^G93A mice, 10 mg/kg or 30 mg/kg daily, four weeks, vs vehicle

SMILES: CN/C1=N/N=C(C)/C(Cc2cccnc2)=N/N=C(/NC)[S][Cu][S]1 [Compound 9]
- Effect on disease onset (SOD1^G93A mice [1]): did not significantly affect
- Effect on survival (SOD1^G93A mice [1]): did not significantly affect

SMILES: CCN/C1=N/N=C(c2ccc(CN3CCOCC3)o2)/C(C)=N/N=C(/NCC)[S][Cu][S]1 [Compound 24]
- CMAP values (change from baseline, % of baseline) (SOD1^G93A mice [2]; male SOD1^G93A mice, 10 mg/kg or 30 mg/kg daily oral gavage, five weeks, vs control): did not significantly improve CMAP values

SMILES: CN/C1=N/N=C(c2ccco2)/C(C)=N/N=C(/NC)[S][Cu][S]1 [Compound 25]
- CMAP as a percentage of baseline (SOD1^G93A mice [2]; SOD1^G93A mice, 10 mg/kg or 30 mg/kg daily oral gavage, 5 weeks, vs vehicle): significantly less change than the mice receiving vehicle
- CMAP change from baseline (SOD1^G93A mice [2]; SOD1^G93A mice, 10 mg/kg or 30 mg/kg daily oral gavage, five weeks, vs control): significant change in CMAP measurements from baseline compared to control mice
- Survival efficacy study (onset of neurological disease, survival, body weight, neurological score) (SOD1^G93A mice [1]; litter-matched, gender-balanced SOD1^G93A mice, chronic daily 30 mg/kg, vs control): displayed benefits

SMILES: CCN/C1=N/N=C(c2ccc(CN3CCN(C)CC3)o2)/C(C)=N/N=C(/NCC)[S][Cu][S]1 [Compound 37]
- CMAP decline (SOD1^G93A mice [2]; male SOD1^G93A mice, 10 mg/kg or 30 mg/kg daily oral gavage, four weeks): did not attenuate the CMAP decline
- Effect on disease onset (SOD1^G93A mice [1]): neither dose significantly affected
- Effect on survival (SOD1^G93A mice [1]): neither dose significantly affected

SMILES: CN=C([S-])N/N=C(C)/C(C)=N/NC([S-])=NC.[Cu+2] [CuATSM, reference compound]
- CMAP change from baseline (SOD1^G93A mice [2]; [4]): no differences
- percent of baseline CMAP (SOD1^G93A mice [2]; [4]): no differences
- Protection in transgenic mouse models of ALS [3]: protective
